Like-named read-outs stand apart in the source and are kept apart here.
Legend:
Assay in all cases: TGFα-shedding assay-based GPCR screening with chimeric Gα subunit proteins
Type in all cases: cell-based
348 GPCRs [1] = target: T1, 348 GPCRs (Homo sapiens, UniProt Q9BXC0); conditions: 10µM, Favipiravir 100μM
T1 construct: expressed in transfected cells; host or cells: HEK293A

348 GPCRs [2] = target: T2, 348 GPCRs (Homo sapiens, UniProt Q03431); conditions: 10µM, Favipiravir 100μM
T2 sequence (Q03431 27-593): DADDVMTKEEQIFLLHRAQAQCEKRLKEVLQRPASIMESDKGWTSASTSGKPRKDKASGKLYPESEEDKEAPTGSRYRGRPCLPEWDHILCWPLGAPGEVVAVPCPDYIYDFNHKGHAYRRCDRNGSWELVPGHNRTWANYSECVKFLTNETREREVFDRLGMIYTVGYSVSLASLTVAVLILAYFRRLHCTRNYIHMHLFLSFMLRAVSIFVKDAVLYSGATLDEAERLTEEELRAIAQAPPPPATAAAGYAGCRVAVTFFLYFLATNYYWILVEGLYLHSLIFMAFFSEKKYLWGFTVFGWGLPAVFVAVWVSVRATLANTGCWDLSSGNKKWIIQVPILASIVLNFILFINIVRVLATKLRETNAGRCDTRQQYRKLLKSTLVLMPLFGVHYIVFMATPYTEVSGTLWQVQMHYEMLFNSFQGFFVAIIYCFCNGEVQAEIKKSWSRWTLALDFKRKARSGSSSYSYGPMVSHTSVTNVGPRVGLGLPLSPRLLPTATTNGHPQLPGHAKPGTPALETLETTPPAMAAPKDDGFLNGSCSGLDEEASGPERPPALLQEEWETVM

348 GPCRs [3] = target: T3, 348 GPCRs (Homo sapiens, UniProt Q6NV75); conditions: 10µM, Favipiravir 100μM
T3 construct: expressed in transfected cells; host or cells: HEK293A
T3 sequence (Q6NV75 whole entry): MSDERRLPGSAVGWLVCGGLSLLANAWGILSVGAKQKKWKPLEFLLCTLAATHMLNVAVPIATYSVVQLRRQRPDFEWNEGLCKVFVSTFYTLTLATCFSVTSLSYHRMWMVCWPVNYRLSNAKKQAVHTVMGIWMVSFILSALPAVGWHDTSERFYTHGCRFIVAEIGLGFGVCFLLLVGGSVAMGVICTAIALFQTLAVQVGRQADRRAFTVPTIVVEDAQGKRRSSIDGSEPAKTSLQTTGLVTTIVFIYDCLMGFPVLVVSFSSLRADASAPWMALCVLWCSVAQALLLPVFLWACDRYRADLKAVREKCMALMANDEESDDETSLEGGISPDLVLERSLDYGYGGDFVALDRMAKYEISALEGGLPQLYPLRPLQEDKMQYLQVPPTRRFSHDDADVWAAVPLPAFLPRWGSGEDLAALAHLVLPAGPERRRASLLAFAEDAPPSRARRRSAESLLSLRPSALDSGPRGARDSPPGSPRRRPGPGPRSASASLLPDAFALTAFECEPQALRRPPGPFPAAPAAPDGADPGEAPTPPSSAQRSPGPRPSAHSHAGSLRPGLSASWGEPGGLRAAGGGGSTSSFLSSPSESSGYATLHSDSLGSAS

348 GPCRs [4] = target: T4, 348 GPCRs (Homo sapiens, UniProt Q9UNW8); conditions: G2A (GPR132); 10µM, Favipiravir 100μM
T4 construct: expressed in transfected cells; host or cells: HEK293A
T4 sequence (Q9UNW8 1-380): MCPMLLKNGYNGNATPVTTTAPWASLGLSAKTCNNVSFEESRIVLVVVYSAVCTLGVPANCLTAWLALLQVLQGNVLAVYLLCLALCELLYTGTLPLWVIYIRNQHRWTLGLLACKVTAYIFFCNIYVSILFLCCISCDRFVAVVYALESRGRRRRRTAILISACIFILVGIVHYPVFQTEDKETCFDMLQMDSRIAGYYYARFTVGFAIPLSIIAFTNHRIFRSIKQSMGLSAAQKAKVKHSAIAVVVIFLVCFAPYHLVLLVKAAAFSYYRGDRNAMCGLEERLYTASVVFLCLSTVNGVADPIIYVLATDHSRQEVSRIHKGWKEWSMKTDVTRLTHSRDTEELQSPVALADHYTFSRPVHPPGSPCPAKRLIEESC

348 GPCRs [5] = target: T5, 348 GPCRs (Homo sapiens, UniProt Q5NUL3)
T5 construct: expressed in transfected cells; host or cells: HEK293A
T5 sequence (Q5NUL3 1-361): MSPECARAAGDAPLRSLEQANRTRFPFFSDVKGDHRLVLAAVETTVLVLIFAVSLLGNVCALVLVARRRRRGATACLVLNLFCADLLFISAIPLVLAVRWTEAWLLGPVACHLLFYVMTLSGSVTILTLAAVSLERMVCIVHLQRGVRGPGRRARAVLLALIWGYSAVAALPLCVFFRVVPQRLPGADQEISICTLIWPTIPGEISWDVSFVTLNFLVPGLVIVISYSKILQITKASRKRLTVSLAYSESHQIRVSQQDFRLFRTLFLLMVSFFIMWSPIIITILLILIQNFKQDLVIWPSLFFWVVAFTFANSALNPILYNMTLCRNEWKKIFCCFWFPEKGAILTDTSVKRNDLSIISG

348 GPCRs [6] = target: T6, 348 GPCRs (Homo sapiens, UniProt P29274); conditions: ADORA2A (adenosine A2a receptor); 10µM, Favipiravir 100μM
T6 construct: expressed in transfected cells; host or cells: HEK293A
T6 sequence (P29274 whole entry): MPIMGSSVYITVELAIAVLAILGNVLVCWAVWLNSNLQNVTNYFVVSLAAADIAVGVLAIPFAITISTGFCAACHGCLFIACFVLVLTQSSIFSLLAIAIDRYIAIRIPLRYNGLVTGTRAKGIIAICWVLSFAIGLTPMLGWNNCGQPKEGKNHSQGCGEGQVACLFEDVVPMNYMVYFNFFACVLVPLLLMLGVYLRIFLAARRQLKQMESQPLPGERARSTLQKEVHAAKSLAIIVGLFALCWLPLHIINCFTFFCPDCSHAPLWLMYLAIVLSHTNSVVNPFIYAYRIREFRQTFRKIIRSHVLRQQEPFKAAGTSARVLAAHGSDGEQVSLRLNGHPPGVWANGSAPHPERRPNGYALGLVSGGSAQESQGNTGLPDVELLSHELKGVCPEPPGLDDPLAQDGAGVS

348 GPCRs [7] = target: T7, 348 GPCRs (Homo sapiens, UniProt P25100)
T7 construct: expressed in transfected cells; host or cells: HEK293A
T7 sequence (P25100 1-572): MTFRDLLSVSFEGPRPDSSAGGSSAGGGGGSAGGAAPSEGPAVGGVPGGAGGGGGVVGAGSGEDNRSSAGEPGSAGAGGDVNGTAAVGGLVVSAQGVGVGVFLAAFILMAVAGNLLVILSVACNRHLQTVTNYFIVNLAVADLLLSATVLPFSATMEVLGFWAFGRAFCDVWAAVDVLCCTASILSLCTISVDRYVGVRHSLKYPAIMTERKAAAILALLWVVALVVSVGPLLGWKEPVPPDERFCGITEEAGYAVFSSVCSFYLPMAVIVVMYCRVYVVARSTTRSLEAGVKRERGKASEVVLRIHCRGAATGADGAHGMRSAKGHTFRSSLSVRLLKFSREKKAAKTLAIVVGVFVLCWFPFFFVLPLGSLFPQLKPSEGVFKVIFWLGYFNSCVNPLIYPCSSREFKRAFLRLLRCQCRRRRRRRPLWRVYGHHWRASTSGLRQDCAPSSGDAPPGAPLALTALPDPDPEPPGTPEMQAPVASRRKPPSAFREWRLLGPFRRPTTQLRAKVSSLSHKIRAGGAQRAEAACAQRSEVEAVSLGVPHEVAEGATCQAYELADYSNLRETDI

348 GPCRs [8] = target: T8, 348 GPCRs (Homo sapiens, UniProt P25116); conditions: 10µM, Favipiravir 100μM
T8 construct: expressed in transfected cells; host or cells: HEK293A
T8 sequence (P25116 22-425): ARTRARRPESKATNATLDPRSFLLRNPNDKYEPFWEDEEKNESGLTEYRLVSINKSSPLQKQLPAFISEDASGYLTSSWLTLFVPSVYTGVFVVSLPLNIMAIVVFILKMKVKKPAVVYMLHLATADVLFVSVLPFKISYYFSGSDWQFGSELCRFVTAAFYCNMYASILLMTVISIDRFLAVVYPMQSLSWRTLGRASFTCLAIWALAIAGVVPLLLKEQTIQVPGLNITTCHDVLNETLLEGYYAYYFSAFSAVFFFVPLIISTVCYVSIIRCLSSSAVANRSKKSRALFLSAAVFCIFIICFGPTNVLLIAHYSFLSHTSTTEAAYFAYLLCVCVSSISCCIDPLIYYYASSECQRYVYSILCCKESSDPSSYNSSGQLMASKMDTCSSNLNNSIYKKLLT

[9] = read-out: % GPCR activation compared to TPA, GPR81 (hydroxycarboxylic acid receptor 1)
[10] = read-out: % GPCR activation compared to TPA, PTH1R (parathyroid hormone 1 receptor)
[11] = read-out: % GPCR activation compared to TPA, GPR153 (G protein-coupled receptor 153)
[12] = read-out: % GPCR activation compared to TPA, FFA4 (free fatty acid receptor 4), Favipiravir 100μM
[13] = read-out: % GPCR activation compared to TPA, GPCR GPR120 (Free Fatty Acid Receptor 4 (FFAR4))
[14] = read-out: % GPCR activation compared to TPA, GPCR α1D (adrenoceptor alpha 1D)
[15] = read-out: % GPCR activation compared to TPA, F2R (coagulation factor II (thrombin) receptor)
[16] = GPR81 (hydroxycarboxylic acid receptor 1), read-out: % GPCR activation compared to TPA
[17] = PTH1R (parathyroid hormone 1 receptor), read-out: % GPCR activation compared to TPA
[18] = GPR153 (G protein-coupled receptor 153), read-out: % GPCR activation compared to TPA
[19] = FFA4 (free fatty acid receptor 4), Favipiravir 100μM, read-out: % GPCR activation compared to TPA
[20] = GPCR GPR120 (Free Fatty Acid Receptor 4 (FFAR4)), read-out: % GPCR activation compared to TPA
[21] = GPCR α1D (adrenoceptor alpha 1D), read-out: % GPCR activation compared to TPA
[22] = F2R (coagulation factor II (thrombin) receptor), read-out: % GPCR activation compared to TPA

T1 sequence (Q9BXC0 whole entry): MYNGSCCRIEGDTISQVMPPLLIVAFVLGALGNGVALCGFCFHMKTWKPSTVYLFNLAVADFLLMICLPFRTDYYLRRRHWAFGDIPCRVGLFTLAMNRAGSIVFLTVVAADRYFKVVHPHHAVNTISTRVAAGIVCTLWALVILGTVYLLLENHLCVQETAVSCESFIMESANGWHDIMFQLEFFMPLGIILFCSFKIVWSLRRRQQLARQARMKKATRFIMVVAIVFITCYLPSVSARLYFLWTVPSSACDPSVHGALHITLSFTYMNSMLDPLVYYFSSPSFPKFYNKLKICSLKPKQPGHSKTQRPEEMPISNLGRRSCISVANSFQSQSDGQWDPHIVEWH

Compound | activation at 100 µM (348 GPCRs [1]; [9]) [%] | activation at 100 µM (348 GPCRs [2]; [10]) [%] | activation at 10 µM (348 GPCRs [3]; [11]) [%] | % GPCR activation compared to TPA (348 GPCRs [4]) [%] | activation at 10 µM (348 GPCRs [5]; [12]) [%] | activation at 10 µM (348 GPCRs [5]; [13]) [%] | % GPCR activation compared to TPA (348 GPCRs [6]) [%] | activation at 10 µM (348 GPCRs [7]; [14]) [%] | activation at 10 µM (348 GPCRs [8]; [15]) [%] | activation at 100 µM (348 GPCRs [1]; [16]) [%] | activation at 100 µM (348 GPCRs [2]; [17]) [%] | activation at 10 µM (348 GPCRs [3]; [18]) [%] | activation at 10 µM (348 GPCRs [5]; [19]) [%] | activation at 10 µM (348 GPCRs [5]; [20]) [%] | activation at 10 µM (348 GPCRs [7]; [21]) [%] | activation at 10 µM (348 GPCRs [8]; [22]) [%] | activation at 100 µM (348 GPCRs [5]; GPCR GPR120 (Free Fatty Acid Receptor 4 (FFAR4)), 100μM, read-out: % GPCR activation compared to TPA) [%] | activation at 100 µM (348 GPCRs [7]; GPCR α1D (adrenoceptor alpha 1D), 100μM, read-out: % GPCR activation compared to TPA) [%]
CC(C)OC(=O)[C@H](C)N[P@](=O)(OC[C@H]1O[C@@H](n2ccc(=O)[nH]c2=O)[C@](C)(F)[C@@H]1O)Oc1ccccc1 [sofosbuvir] | -7.92 | 1.23 | -14.2 | -1.375 | -2.55 | -1.1 | -2.149 | 0.0197 | -1.12 |  |  |  |  |  |  |  |  | 
CC(C)C(=O)OC[C@H]1O[C@@H](n2ccc(NO)nc2=O)[C@H](O)[C@@H]1O [molnupiravir] |  |  |  | -1.8016 |  |  | -1.952 |  |  | 0.933 | -0.633 | -23.6 | -1.75 | -1.23 | 0.273 | -0.992 |  | 
NC(=O)c1nc(F)cnc1O [favipiravir, 6-fluoro-3-hydroxy-2-pyrazinecarboxamide] |  |  |  | 7.4 |  |  | 2.3424 |  |  | 0.102 | -0.775 | 0.731 | -8.27 |  |  | -2.55 | -1.72 | 1.16
N#C[C@@]1(c2ccc3c(N)ncnn23)O[C@H](CO)[C@@H](O)[C@H]1O [GS441524] |  |  |  | -8.135 |  |  | 1.631 |  |  | 1.05 | -0.479 | -3.34 | -7.33 | 0.817 | -1.11 | -1.57 |  | 
CCC(CC)COC(=O)[C@H](C)N[P@](=O)(OC[C@H]1O[C@@](C#N)(c2ccc3c(N)ncnn23)[C@H](O)[C@@H]1O)Oc1ccccc1 [remdesivir] | 2.29 | 0.414 | 4.65 | 10.99 | -7.9 | 1.09 | 3.955 | 1.67 | -1.45 |  |  |  |  |  |  |  |  | 

Reference: PMC10175918 (Communications Biology, 2023)
